Patent US9487561B2, “Biologically active complex and its preparation” (HAMLET PHARMA AB, priority 2010, dated 2016)
Entries after “also recorded” stand apart in the source; their conditions may differ.

Columns and labels:
[1] = tested on: potassium channels in A549, lung carcinoma cell lines; test: FLUXOR potassium (K^+) channel assay, Thallium (Tl^+) indicator; type: cell-based, human; details: HAMLET 35 μM; for effect of channel blocker on K^+ flux in response to HAMLET: carcinoma cells, 30 minutes pretreatment; for potassium channel activity (fluorescence signal): oleate 175 μM (5× the HAMLET concentration), peptides mixed with oleate and immediately added
Experimental: (§1) The FLUXOR™ potassium (K^+) channel assay was performed on the TECAN infinite F200 (Tecan Group, Switzerland), according to the manufacturer's instructions (Invitrogen). Briefly, this involved FLUXOR™ loading buffer (Hank's Balanced Saline Solution, (HBSS) buffered with 20 mM HEPES and pH adjusted to 7.4 with NaOH. POWERLOAD™ concentrate and water-soluble Probenecid were used respectively to enhance the dye solubility and retention, respectively. Media were removed from the cell plates manually, and 80 μL of loading buffer containing the FLUXOR™ dye mix was applied to each well. Once inside the cell, the nonfluorescent AM ester form of the FLUXOR™ dye is cleaved by endogenous esterases into a thallium-sensitive indicator. The dye was loaded for 60 minutes at room temperature and then removed with the supernatant. After washing with dye-free PBS buffer, a final volume of 80 μL assay buffer containing water-soluble probenecid was added. Cells received one of the following channel inhibitors: 3.3 μL per well of 30 mM amiloride, 3.0 μL of 32 mM BaCl2, 1.8 μL of 5.4 mM gadolinium, 3 μL 3.2 mM tetrandrine and 2.3 μL of 2.6 mM ruthenium red, and were then incubated at room temperature (23-25° C.) for 30 minutes to allow equilibration of the test compounds. Prior to injection, stimulation buffer was prepared from the chloride-free buffer and thallium reagents provided in the kit as well as HAMLET, to achieve a final added concentrations of 2 mM free Tl+ and 35 μM HAMLET after 1:5 dilution upon injection of the stimulus buffer onto cells that had been loaded with FLUXOR™ dye.
To distinguish Ca^2+ mobilization from intracellular stores from the influx of extracellular Ca^2+, EGTA was then added to the cell medium. […] K^+ fluxes across tumor cell membranes were subsequently quantified under the same experimental conditions, using the fluorophore FLUXOR™, which fluoresces after thallium has entered cells through K^+ channels.
Potassium channel activity was therefore measured in A549, lung carcinoma cell lines using an indicator, which emits fluorescence signal upon entering the cells via opened potassium channels, Thallium (Tl^+) indicator (FIG. 18).

[2] = tested on: A549 lung carcinoma cells; test: cell death assay (trypan blue exclusion, ATP levels); type: cell-based, human; details: for effect of channel inhibitor on HAMLET-induced cell death: 30 minutes pretreatment, HAMLET three hours; for tumoricidal effect (trypan blue exclusion, ATP): Example 2, 3 hours, molar concentrations based on stoichiometry in HAMLET, dose response
Experimental: Cells were detached from cell culture flasks with versen (0.2 g EDTA in 200 ml H2O and 800 ml PBS), washed with PBS and resuspended in serum-free RPMI-1640. HAMLET dissolved in PBS was incubated with cells (0.5×10^6/ml for A549, A498 and HeLa cells; 1×10^6/ml for Jurkat) at 37° C. FCS was added after 1 hour. Cell death was quantified by trypan blue exclusion (Chroma Gesellschaft Schmid & Co) or by measuring ATP levels (ATPlite Kit, PerkinElmer, Infinite 200, Tecan). Light images were captured using the HOLOMONITOR™ M2 digital holographic microscope (Phase Holographic Imaging AB, Lund, Sweden).
For studies with inhibitors, cells were pretreated for 30 minutes. Inhibitors used were Gadolinium chloride (GdCl3, 100 μM), Barium chloride (BaCl2, 1 mM), Ruthenium red (30 μM), tetrandrine (10 μM) and amiloride (1 mM), all from Sigma Aldrich. For p38 inhibition, SB202190 (20 μM, Sigma Aldrich) or BIRB796 (10 μM, Axon Medchem) dissolved in DMSO was used. The wells were washed twice with PBS and new medium with inhibitor was added. For RNA interference, FlexiTube siRNA Premixes against MAPK11 (SI00606053), MAPK14 (SI00300769) and All Star Negative Control siRNA (SI03650318) from Qiagen was used. A549 forward was transfected using 25 nM final siRNA concentration in 24-well plate. After 48 hours, knockdown was examined by Western blot (anti-p38, 1:1000, Cell Signaling) and RT-PCR (MAPK14, QT00079345, QIAGEN).
To examine if functional ion channels are important for the tumoricidal activity of HAMLET, A549 lung carcinoma cells in suspension were pretreated with the channel inhibitors for 30 minutes and exposed to increasing concentrations of HAMLET for three hours.
A549 cells were seeded to a density of 0.8-1.0×10^6 cells/well in RPMI without FCS. Different volumes of HAMLET/oleate and oleic acid solutions were added. The cells were incubated for 1 hour at 37° C. 5% CO2 for 1 hour before 50 μl of FCS (5% final concentration) were added to the wells. The cells were then further incubated for additional 2 hours before the viability were determined by trypan blue exclusion and ATP measurements.

[3] = tested on: A549 lung carcinoma cells; test: as above; type: cell-based, human; details: 24 hours, control cells without inhibitor or pretreated with inhibitor
tumor cells = test: ion fluxes (Ca^2+, K^+, Na^+) quantified by fluorometry; type: cell-based; details: for effect of inhibitor on HAMLET Ca^2+ fluxes: FIG. 1B
Experimental: FIG. 1. […] (A, upper panels) Bright-field micrographs showing glass-adherent egg yolk vesicles before and after a 40-minute exposure to HAMLET, α-lactalbumin (HLA) or oleic acid (OA). Morphology was recorded by differential interference contrast microscopy. Scale bar […]. […] (A, lower panels) Effect of HAMLET on PMVs from lung carcinoma cells. PMVs on glass-bottom dishes were exposed to HAMLET, HLA or OA and stained with Nile red for confocal microscopy. […] As a control PMVs from healthy, differentiated cells on glass-bottom dishes were also exposed to HAMLET and stained with Nile red.
FIG. 7. Ion Fluxes. (A) Ion fluxes induced by HAMLET (35 μM) or it constituents (35 μM All-ala α-lactalbumin or 175 μM sodium oleate) were quantified by fluorometry, as described. […] (B) The global transcriptional response to HAMLET was studied by microarray and the top 3000 genes by variance visualized in a Heatmap. […] Darker bands=high expression, lighter bands=low.
as §1

[4] = 35 μM All-ala α-lactalbumin or 175 μM sodium oleate, FIG. 7A

[Ba+2].[Cl-].[Cl-] [BaCl2, barium chloride]
effect of channel blocker on K^+ flux in response to HAMLET [1]: intermediate inhibition | effect of channel inhibitor on HAMLET-induced cell death [2]: markedly reduced cell death | cells died after HAMLET [3]: 13% | effect of inhibitor on HAMLET Ca^2+ fluxes (tumor cells): inhibited

NC(N)=NC(=O)c1nc(Cl)c(N)nc1N [amiloride, 3,5-diamino-6-chloro-N-(diaminomethylene)pyrazine-2-carboxamide]
effect of channel blocker on K^+ flux in response to HAMLET [1]: intermediate inhibition | effect of channel inhibitor on HAMLET-induced cell death [2]: markedly reduced cell death | cells died after HAMLET [3]: 8% | effect of inhibitor on HAMLET Ca^2+ fluxes (tumor cells): inhibited

CCCCCCCC/C=C\CCCCCCCC(=O)[O-].[Na+] [oleate, sodium oleate]
potassium channel activity (fluorescence signal) [1]: potassium channels were activated by oleate alone, but at lower efficiency than HAMLET | tumoricidal effect (trypan blue exclusion, ATP) [2]: tumoricidal; also recorded: stronger than that of oleic acid | concentration at which tumor cells were killed, relative to concentration in HAMLET ([2]; Example 2, dose response): three to five times higher than the concentration in HAMLET | tumoricidal effect at concentrations corresponding to 15× that of HAMLET (35 μM) ([2]; FIG. 7F, cell line not stated): not tumoricidal | K^+ fluxes (tumor cells; [4]): triggered K^+ fluxes | Na^+ or Ca^2+ fluxes (tumor cells; [4]): low

B1: HAMLET (protein, UniProt P00709 20-142, looked up)
Alpha-lactalbumin: KQFTKCELSQLLKDIDGYGGIALPELICTMFHTSGYDTQAIVENNESTEYGLFQISNKLWCKSSQVPQSRNICDISCDKFLDDDITDDIMCAKKILDIKGIDYWLAHKALCTEKLEQWLCEKL
modifications: oleic acid complex
potassium channel activity (fluorescence signal) [1]: rapidly opened the K^+ channels; also recorded: triggers a rapid potassium flux | tumoricidal effect (trypan blue exclusion, ATP) [2]: kills tumor cells more efficiently than protein free oleate or oleic acid | lethal response (trypan blue exclusion, ATP levels) ([2]; increasing concentrations, three hours, no inhibitors): rapid, dose-dependent lethal response | cells died after HAMLET [3]: 44%
